# Data from patent US12493045B2, “Multi-target crosslinkers and uses thereof” (The Regents of the University of California, priority 2018, dated 2025).
# Positions count from the first letter of the chain named.
# Legend:
# [1] = system: SSB-19(3×) or SSB-ATC(4×) complex; test: SSB protein-DNA oligo crosslinking (denaturing TBE-urea gel shift); format: biochemical; details: 19(3×) or ATC(4×) DNA, 1 mM crosslinker, UV 365 nm 15 min
# HEK293T cells = test: Toxicity on incubation with HEK293T cells; format: cell-based, mammalian; details: 0.6 mM HoQM incubated for different time duration (4 or 8 hr)
# [2] = molecular target: T1, 14-3-3 WT in E. coli cell lysate (Homo sapiens, UniProt P63104); test: Crosslinking of 14-3-3 WT in E. coli cell lysate (Western blot); format: biochemical
# T1 sequence (P63104 1-245): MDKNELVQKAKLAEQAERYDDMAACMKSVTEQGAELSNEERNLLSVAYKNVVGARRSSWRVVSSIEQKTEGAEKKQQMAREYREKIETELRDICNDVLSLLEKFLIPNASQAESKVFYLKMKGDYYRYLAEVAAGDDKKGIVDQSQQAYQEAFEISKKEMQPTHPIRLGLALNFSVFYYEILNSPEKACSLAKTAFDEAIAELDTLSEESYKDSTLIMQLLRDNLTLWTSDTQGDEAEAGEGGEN
# Text: (§1) Following crosslinking, NHQM results in a short and rigid linkage, which requires close contact of target residue pairs for effective crosslinking. We therefore tested whether this feature of NHQM could be used to readily determine protein dimerization in vitro and in cell lysates. It has been reported that three mutations (^12LAE^14→^12QQR^14) of 14-3-3 disrupt the dimer interface to form a monomer, leading to a distinct function from WT 14-3-3, such as chaperone activity.^[17] [18] However, previously the 14-3-3(QQR) mutant was isolated from cells and then characterized as a monomer using size exclusion chromatography. This in vitro process is tedious, and the results may not represent what occur in the cellular environment. We first treated purified 14-3-3 WT and QQR mutant with various amounts of NHQM and illuminated with UV light of 365 nm (FIGS. 9A-9B). […] We then applied NHQM directly to cell lysates of E. coli cells expressing either 14-3-3 WT or its QQR mutant, without isolating the 14-3-3 proteins.
# WT 14-3-3 protein = molecular target: T2, WT 14-3-3 protein (Homo sapiens, UniProt P63104); test: Tandem MS (CXMS) of crosslinked 14-3-3; format: biochemical
# T2 sequence (P63104 1-245): T1 sequence (P63104 1-245)
# Method: Tryptic digestion of cross-linked proteins. Protein digestion was carried out by following a procedure described previously.^[28] Briefly, after crosslinking protein samples were quenched by adding 100 mM Tris-HCI, pH 7.4 for 15 min. […] Protein was collected by centrifugation for 10 min at 15,000 g. […] Digestion was terminated by adding formic acid at final concentration 5% (v/v). Digested peptides were desalted with C18 ZipTip, and eluted peptides were dried down with SpeedVac.
# Mass spectrometry. Digested peptides were dissolved in 200 mM NH4HCO3 after clean-up and then subject to tandem mass spectrometry on a Thermo Q-Exactive Orbitrap. Crosslinked peptides. Peptides were separated by nano-LC Ultimate 3000 high-performance liquid chromatography system using an Acclaim PepMap C18 column (Thermo Scientific). […] The Q-Exactive mass spectrometer was operated in data-dependent mode with one full MS scan at R=70,000 (m/z=200) followed by ten HCD MS/MS scans at R=17,500 (m/z=200) using a stepped normalized collision energy of 28, 30, 35 eV. The AGC targets for the MS1 and MS2 scans were 3×10^6 and 1×10^5, respectively, and the maximum injection time for MS1 was 250 ms, and for MS2 was 200 ms. Precursors of the +1, +6 or above, or unassigned charge states were rejected; exclusion of isotopes was enabled; dynamic exclusion was set to 30 s. The crosslinking mass spectra were analyzed with pLink 2.3.^[29]
# [3] = system: SSB protein with viral M13mp18 DNA; test: SSB protein-M13mp18 DNA crosslinking (denaturing TBE-urea gel shift); format: biochemical; details: 1 mM NHQM, UV 365 nm 15 min
# Method: that are reported to interact with SSB^[24] [25] The SSB-DNA complex was treated with NHQM and UV activation, and analyzed by denaturing TBE-urea gel shift assay to detect covalent crosslinking between SSB and DNA. […] We further investigated protein-DNA crosslinking by incubating a natural single stranded circular viral DNA M13mp18 with the SSB protein.^[26] As shown in FIG. 21B (also FIGS. 22A-22B), the M13mp18 control DNA run as two isoforms in the denatured TBE-Urea gel due to its large size, a major form remained in the well and a minor form migrating in the gel.
# [4] = molecular target: T3, 14-3-3 protein (WT homodimer) (Homo sapiens, UniProt P63104); test: Dimeric crosslinking of 14-3-3 WT in vitro (SDS-PAGE); format: biochemical
# T3 sequence (P63104 1-245): T1 sequence (P63104 1-245)
# Text: We initially designed and synthesized a heterobifunctional crosslinker NHQM containing an NHS ester and a photocaged ortho-quinone methide (o-QM) (FIG. 7A). Two fluorines were installed at the methyl group ortho to the phenolic hydroxyl group, which was photocaged by an o-nitrobenzyl group. When in proximity to proteins, the reactive NHS ester will react with exposed Lys residues, planting the photocaged o-QM next to residues on interaction partners. UV release of o-nitrobenzyl induces elimination of a fluoride ion to generate o-QM spontaneously, which will subsequently crosslink with nearby nucleophilic side chains (FIG. 7A). […] We further studied the crosslinking rate by varying the duration of UV treatment immediately after addition of NHQM.
# as §1
# NHQM mediated 14-3-3 crosslinking in vitro.
# (§2) Utilizing NHQM to differentiate 14-3-3 dimer versus monomer.
# HoQM mediated 14-3-3 crosslinking in vitro.
# [5] = molecular target: endogenous EGFR in MCF7 cells (Homo sapiens, UniProt P00533); test: Crosslinking of endogenous EGFR on mammalian cell surface (Western blot); format: cell-based; details: BS^3 as positive control
# Sequence of endogenous EGFR in MCF7 cells (P00533 25-1210): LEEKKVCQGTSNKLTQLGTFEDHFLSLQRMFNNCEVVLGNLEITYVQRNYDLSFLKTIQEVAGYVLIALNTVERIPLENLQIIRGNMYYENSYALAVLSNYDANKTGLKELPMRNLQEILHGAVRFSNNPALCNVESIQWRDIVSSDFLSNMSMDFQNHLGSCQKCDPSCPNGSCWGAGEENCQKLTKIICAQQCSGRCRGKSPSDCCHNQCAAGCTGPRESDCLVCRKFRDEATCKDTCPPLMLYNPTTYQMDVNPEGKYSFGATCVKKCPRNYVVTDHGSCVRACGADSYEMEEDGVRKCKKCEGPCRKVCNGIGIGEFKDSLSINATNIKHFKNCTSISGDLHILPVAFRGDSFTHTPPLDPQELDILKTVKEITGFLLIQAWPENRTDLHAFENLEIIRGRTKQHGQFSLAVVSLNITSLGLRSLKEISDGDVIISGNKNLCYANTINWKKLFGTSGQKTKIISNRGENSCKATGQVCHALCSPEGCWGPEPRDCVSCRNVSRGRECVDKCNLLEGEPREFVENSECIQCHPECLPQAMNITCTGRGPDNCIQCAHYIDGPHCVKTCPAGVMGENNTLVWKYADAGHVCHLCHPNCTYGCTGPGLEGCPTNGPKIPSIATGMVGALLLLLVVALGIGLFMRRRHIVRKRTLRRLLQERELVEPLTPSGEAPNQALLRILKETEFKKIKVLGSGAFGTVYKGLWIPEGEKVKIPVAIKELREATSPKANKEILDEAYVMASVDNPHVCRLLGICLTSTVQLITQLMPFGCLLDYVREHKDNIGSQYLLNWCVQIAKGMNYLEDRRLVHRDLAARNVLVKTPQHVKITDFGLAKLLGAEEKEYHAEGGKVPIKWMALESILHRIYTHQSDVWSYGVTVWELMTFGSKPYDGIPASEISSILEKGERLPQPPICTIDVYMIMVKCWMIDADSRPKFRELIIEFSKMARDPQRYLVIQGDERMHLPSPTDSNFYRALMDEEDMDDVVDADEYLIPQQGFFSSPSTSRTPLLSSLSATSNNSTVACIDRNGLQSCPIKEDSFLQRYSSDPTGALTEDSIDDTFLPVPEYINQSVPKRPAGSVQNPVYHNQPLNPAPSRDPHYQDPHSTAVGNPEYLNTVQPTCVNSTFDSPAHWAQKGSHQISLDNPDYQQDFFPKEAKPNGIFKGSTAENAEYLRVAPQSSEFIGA
# [6] = molecular target: glutathione transferase (GST) expressed in HEK 293T cells (Escherichia coli, UniProt P0A9D2); test: GST crosslinking in mammalian cells (Western blot); format: cell-based; details: 4 mM NHQM, UV 365 nm 15 min
# 14-3-3(QQR) mutant = molecular target: T4, 14-3-3(QQR) mutant (Homo sapiens, UniProt P63104, A13Q/E14R/L12Q); test: Crosslinking of monomeric 14-3-3(QQR) mutant in vitro (SDS-PAGE); format: biochemical; details: 0-0.4 mM NHQM, UV 365 nm 15 min
# T4 sequence (P63104 1-245 L12Q/A13Q/E14R): T1 sequence (P63104 1-245) with L12Q, A13Q, E14R
# Text: as §1, §2
# [7] = molecular target: epidermal growth factor receptor (EGFR) (Homo sapiens, UniProt P00533); test: Crosslinking of overexpressed EGFR on HEK293T cells (Western blot); details: HEK293T overexpressing EGFR, 4 mM NHQM, UV 365 nm 15 min
# Sequence of epidermal growth factor receptor (EGFR) (P00533 25-1210): as above
# Method: We subsequently tested NHQM's crosslinking ability in mammalian cells. […] Therefore, we tested using NHQM to crosslink proteins on mammalian cell surfaces.
# Plasmid pCDNA3.1-14-3-3, pCDNA3.1-GST, or pCDNA3.1-EGFR (2 μg each) was transfected into one well of 6-well plate of HEK293T cells, respectively. After transfection, the cells were cultured at 37° C. for additional 24 hr. The cells were harvested and washed with PBS, pH 7.4 for one time, followed by resuspension in 50 μL PBS, pH 7.4. The cells were either added nothing or added with 4 mM NHQM and incubated at RT for 15 min. Then the cells were illuminated with or without UV at wavelength 365 nm for another 15 min. After that, the reaction was treated by adding 100 mM Tris-HCI, pH 7.5 and incubated at RT for 15 min. The samples were then quickly treated with 2×SDS loading dye containing 100 mM DTT, boiled at 95° C. for 5 mins, and analyzed by running Western blot using an anti-His antibody.
# Thioredoxin (Trx) = Thioredoxin (Trx) (Escherichia coli, UniProt P0AA25); details: 1 mM or 10 mM NHQM, UV 365 nm 15 min, E. coli cell lysate
# Sequence of Thioredoxin (Trx) (P0AA25 whole entry): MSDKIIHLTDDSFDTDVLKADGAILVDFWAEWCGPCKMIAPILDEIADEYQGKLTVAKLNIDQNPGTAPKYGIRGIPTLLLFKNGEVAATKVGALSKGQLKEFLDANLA
# Method: We started by testing NHQM's ability to crosslink interacting proteins in E. coli cell lysates. […] We expressed His-tagged Trx in E. coli cells, and then applied NHQM to the cell lysate followed by UV activation.
# Plasmid pBAD-Trx was transformed into BL21(DE3) E. coli cells, and the Trx protein expression was carried out following procedures described above except that the cell culture volume was decreased to 20 mL. After protein expression, the cells were harvested and resuspended in 15 mL 50 mM sodium phosphate buffer containing 200 mM NaCI, pH 7.5. The cells were broken by sonification. 15 μL cell suspension were taken and added with 0, 1, or 10 mM NHQM and incubated at RT for 15 min, followed by UV illumination at wavelength 365 nm for another 15 min. The reaction was then treated by adding 100 mM Tris-HCI, pH 7.5 and incubated at RT for 15 min. The samples were then quickly treated with SDS loading dye containing 100 mM DTT, boiled at 95° C. for 5 min, and then analyzed with Western blot using anti-His antibody.
# [8] = molecular target: T5, 14-3-3 QQR mutant in E. coli cell lysate (Homo sapiens, UniProt P63104, A13Q/E14R/L12Q); test: Crosslinking of 14-3-3 QQR mutant in E. coli cell lysate (Western blot); format: biochemical
# T5 construct: expressed in transfected cells; host or cells: E. coli, cell lysate
# T5 sequence (P63104 1-245 L12Q/A13Q/E14R): T1 sequence (P63104 1-245) with L12Q, A13Q, E14R
# Text: as §1
# [9] = molecular target: T6, 14-3-3 expressed in HEK293T cells (Homo sapiens, UniProt P63104); test: 14-3-3 crosslinking in mammalian cells (Western blot); details: 4 mM NHQM, UV 365 nm 15 min
# T6 sequence (P63104 1-245): T1 sequence (P63104 1-245)
# Method: We subsequently tested NHQM's crosslinking ability in mammalian cells. We incubated NHQM with live mammalian cells expressing the dimeric glutathione transferase (GST)^[9] or 14-3-3. […] Therefore, we tested using NHQM to crosslink proteins on mammalian cell surfaces. […] In addition, we further explored whether NHQM could probe endogenous mammalian proteins at physiologically relevant conditions. With this aim, we cultured MCF7 cells and treated them with or without NHQM, with or without UV, using the amine-reactive crosslinker bissulfosuccinimidyl suberate (BS^3) as a positive control.
# Plasmid pCDNA3.1-14-3-3, pCDNA3.1-GST, or pCDNA3.1-EGFR (2 μg each) was transfected into one well of 6-well plate of HEK293T cells, respectively. After transfection, the cells were cultured at 37° C. for additional 24 hr. The cells were harvested and washed with PBS, pH 7.4 for one time, followed by resuspension in 50 μL PBS, pH 7.4. […] The samples were then quickly treated with 2×SDS loading dye containing 100 mM DTT, boiled at 95° C. for 5 mins, and analyzed by running Western blot using an anti-His antibody.
# Plasmid pCDNA3.1-14-3-3 (2 μg) was transfected into one well of 6-well plate of HEK293T cells. […] The samples were then quickly treated with 2×SDS loading dye containing 100 mM DTT, boiled at 95° C. for 5 min, and analyzed with Western blot using an anti-His antibody.
# [10] = molecular target: T7, Glutathione S-Transferase (GST) (Escherichia coli, UniProt P0A9D2); test: Cross-linking of GST (SDS-PAGE, Western blot, CXMS)
# T7 sequence (P0A9D2 1-201): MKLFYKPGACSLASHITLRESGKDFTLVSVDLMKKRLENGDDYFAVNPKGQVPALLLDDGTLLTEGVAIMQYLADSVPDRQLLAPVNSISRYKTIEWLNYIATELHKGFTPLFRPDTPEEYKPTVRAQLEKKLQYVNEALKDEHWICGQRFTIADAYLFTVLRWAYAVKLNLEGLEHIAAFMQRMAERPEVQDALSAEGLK
# Method: NHSF Cross-links Glutathione S-Transferase. To further validate the cross-linking specificity of NHSF, the homodimeric Glutathione S-Transferase (GST) was cross-linked by NHSF or BS2G.
# Peptide and protein cross-linking. […] BS2G cross-linking reaction was terminated at RT by adding 20 mM ammonium bicarbonate and incubating for 20 min. NHSF cross-linking reaction was terminated at RT by adding 10 mM Dithiothreitol (DTT) and incubating for 20 min. GST: In a 20 μL reaction, 10 μM GST (23 kDa, in PBS buffer, pH 7.5) was cross-linked at RT for 1 h with 0.5 mM BS2G or 0.5 mM NHSF, which corresponded to a 1:50 protein:cross-linker molar ratio. The cross-linking reactions were similarly terminated as described in the BSA section above.
# peptide 7KR (Ac-AAAKAAR) = test: Reaction of crosslinker with model peptide 7KR (mass spectra); format: biochemical; details: 10 μM peptide, 10 μM crosslinker, PBS pH 7.5, RT 1 h
# Text: Reaction of NHSF with Model Peptide. We first tested the reactivity of NHSF with a model peptide (Ac-AAAKAAR (SEQ ID NO:1), 7KR) with a single Lys as a reactive group, and compared its reactivity towards BS2G (bis(sulfosuccinimidyl) 2,2,4,4-glutarate-d4, FIG. 2A), a commercial NHS-based homo-bifunctional crosslinker of similar length. […] Owing to the low reactivity of sulfonyl-fluorides and the lack of reactive groups in 7KR, additional reaction was not observed with the Arg sidechain.
# Peptide and protein cross-linking.
# [11] = molecular target: Bovine Serum Albumin (BSA) (Bos taurus, UniProt P02769); test: CXMS analysis of cross-linked BSA
# Sequence of Bovine Serum Albumin (BSA) (P02769 25-607): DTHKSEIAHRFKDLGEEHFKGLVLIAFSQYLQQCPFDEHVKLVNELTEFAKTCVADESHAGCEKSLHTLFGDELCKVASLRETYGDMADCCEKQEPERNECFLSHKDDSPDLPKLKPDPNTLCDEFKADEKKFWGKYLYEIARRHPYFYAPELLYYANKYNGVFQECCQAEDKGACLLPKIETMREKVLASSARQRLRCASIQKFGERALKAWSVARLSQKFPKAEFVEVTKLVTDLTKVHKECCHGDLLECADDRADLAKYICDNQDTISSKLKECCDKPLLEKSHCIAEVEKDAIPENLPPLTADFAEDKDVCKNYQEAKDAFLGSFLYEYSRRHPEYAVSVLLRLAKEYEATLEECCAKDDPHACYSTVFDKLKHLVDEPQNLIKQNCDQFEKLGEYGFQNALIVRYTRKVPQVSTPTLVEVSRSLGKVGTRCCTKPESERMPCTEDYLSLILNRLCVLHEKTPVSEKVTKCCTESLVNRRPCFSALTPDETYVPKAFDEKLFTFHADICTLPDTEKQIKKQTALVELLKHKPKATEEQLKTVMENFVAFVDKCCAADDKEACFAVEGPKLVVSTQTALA
# Method: NHSF Cross-links Bovine Serum Albumin.
# BSA: In a 20 μL reaction, 10 μM BSA (69 kDa, in PBS buffer, pH 7.5) was cross-linked at RT for 1 h with 1 mM BS2G or 1 mM NHSF, which corresponded to a 1:100 protein:cross-linker molar ratio. BS2G cross-linking reaction was terminated at RT by adding 20 mM ammonium bicarbonate and incubating for 20 min. NHSF cross-linking reaction was terminated at RT by adding 10 mM Dithiothreitol (DTT) and incubating for 20 min.
# Protein digestion. All protein samples were precipitated by six volumes of acetone at −20° C. for 30 min. Precipitated proteins were dried in air and resuspended in 8 M urea, 100 mM Tris, pH 8.5. After reduction with 2 mM DTT for 20 min and alkylation with 10 mM iodoacetamide for 15 min in the dark, samples were diluted to 2 M urea with 100 mM Tris, pH 8.5, and digested with trypsin (at 50:1 protein:enzyme ratio) at 37° C. for 16 h. Digestion was stopped by adding formic acid to 5% final concentration, and digested peptides were desalted with stagetip.
# Tandem mass spectrometric analysis. Mass spectrometry experiments were performed using an Orbitrap Fusion Lumos™ instrument (ThermoFisher, San Jose, CA) coupled with an UltiMate™ 3000 nano LC. Mobile phase A and B were water and acetonitrile, respectively, with 0.1% formic acid. […]
# [12] = system: E. coli whole cell lysate; test: CXMS analysis of cross-linked E. coli whole cell lysate; details: 10 mg/mL lysate, 40 mM crosslinker, RT 2 h
# Method: To determine whether NHSF could be used in complex biological samples to generate novel cross-links for MS identification, we applied BS2G and NHSF on E. coli whole cell lysate.
# Preparation of E. coli cell lysate. DH10β bacterial cells were cultured overnight. After cells were harvested by centrifugation, cell pellets were washed twice with PBS. Cells were resuspended with lysis buffer (50 mM Hepes, pH 8.3, 150 mM NaCl, 1×EDTA-free Complete Protease Inhibitor Cocktail) and incubate with lysozyme (1 mg/mL), DNase I (0.5 mg/mL) and RNase A (0.1 mg/mL) at 4° C. for 30 min. Cell lysates were sonicated for 3 min with 30% energy and filtrated with Amicon-0.5 ml 10K unit for 3 times.
# Peptide and protein cross-linking. […] E. coli cell lysate: 20 uL lysate (10 mg/mL protein, 50 mM Hepes, pH 8.3, 150 mM NaCl) was incubate with 40 mM BS2G or 40 mM NHSF at RT for 2 h. BS2G cross-linking reaction was terminated at RT by adding 100 mM ammonium bicarbonate and incubating for 20 min. NHSF cross-linking reaction was terminated at RT by adding 100 mM DTT and incubating for 20 min.
# Protein digestion. All protein samples were precipitated by six volumes of acetone at −20° C. for 30 min. Precipitated proteins were dried in air and resuspended in 8 M urea, 100 mM Tris, pH 8.5. […]
smiles,measurement,setting,value
"O=C(CCCCCCC(=O)ON1C(=O)CC(S(=O)(=O)O)C1=O)ON1C(=O)CC(S(=O)(=O)O)C1=O (stereo not drawn) [BS^3, bissulfosuccinimidyl suberate, reference compound]",SSB-DNA crosslinking (upshifted band),[1],did not result in SSB-DNA crosslinking
O=C(c1ccc(OCc2ccccc2[N+](=O)[O-])c(C(F)F)c1)N1CCN(C(=O)c2ccc(OCc3ccccc3[N+](=O)[O-])c(C(F)F)c2)CC1 [HoQM],Toxicity to HEK293T cells,HEK293T cells,without apparent toxicity
O=C(ON1C(=O)CCC1=O)c1ccc(OCc2ccccc2[N+](=O)[O-])c(C(F)F)c1 [NHQM],SSB-DNA crosslinking (upshifted band),[1],upshifted band was only observed for the SSB-19(3×) or SSB-ATC(4×) complex treated with both NHQM and UV light
same,Dimeric crosslinking of 14-3-3 WT in cell lysate,[2],crosslinked as dimer
same,Pairs of crosslinked peptides identified,"WT 14-3-3 protein; crosslinked 14-3-3, tandem MS",Eight
same,Residues crosslinked with Lys,"WT 14-3-3 protein; crosslinked 14-3-3, tandem MS","Arg, Asn, Gln, Glu, Lys, or Ser"
same,Cα-Cα distance of the crosslink exceeding the limit,WT 14-3-3 protein; limit ~22 Å,23.7 Å
same,SSB-M13mp18 crosslinking (upshift of minor form),[3],only in the presence of both NHQM treatment and UV activation was the minor form of M13mp18 upshifted into the well
same,Crosslinked dimer of 14-3-3 WT versus crosslinker amount,"[4]; 0-0.4 mM NHQM, UV 365 nm 15 min",increased with higher NHQM concentration
same,UV exposure at which crosslinking of 14-3-3 could be observed,"[4]; 1 mM NHQM, UV 365 nm, SDS-PAGE",1 min
same,Crosslinked dimer of 14-3-3,"[4]; 1 mM crosslinker, with or without UV 365 nm, SDS-PAGE",detected only with addition of NHQM crosslinker and UV illumination
same,Crosslinking efficiency of endogenous EGFR,[5],comparable to the commercial crosslinker BS^3
same,Efficiency of dimeric crosslinking of GST in live mammalian cells,[6],< 10%
same,Crosslinking of 14-3-3 QQR,14-3-3(QQR) mutant,remained a monomer even at NHQM concentration up to 0.4 mM
same,EGFR dimer on Western blot,[7],EGFR dimer was detected
same,Crosslinking of endogenous proteins to Trx,Thioredoxin (Trx),many endogenous proteins were crosslinked to Trx
same,Dimeric crosslinking of 14-3-3 QQR mutant in cell lysate,[8],not the QQR mutant
same,Efficiency of dimeric crosslinking of 14-3-3 in live mammalian cells,[9],< 10%
"[2H]C([2H])(CC(=O)ON1C(=O)CC(S(=O)(=O)O)C1=O)C([2H])([2H])C(=O)ON1C(=O)CC(S(=O)(=O)O)C1=O (stereo not drawn) [BS2G, bis(sulfosuccinimidyl) 2,2,4,4-glutarate-d4]",Cross-linked peptides identified by MS,"[10]; 10 μM GST, 0.5 mM crosslinker, RT 1 h",15
same,Cross-links incompatible with the GST structure,"[10]; out of 15 cross-links, PDB 1N2A",6
same,Products detected after reaction with peptide 7KR,peptide 7KR (Ac-AAAKAAR),both a mono-linked peptide as well as the cross-linked dimer
same,Inter-peptide cross-links identified by MS,"[11]; 10 μM BSA, 1 mM crosslinker, RT 1 h",18
same,Cross-linked peptides exceeding the distance limit,"[11]; limit of 20 Å Cα-Cα, BSA structure PDB 3V03",four
same,Inter-linked peptides identified,[12],106
